Data: the supplement of paper PMC10733146

Tests used:
Test in all cases: viability relative to DMSO control (fraction); higher = less drug effect (more viable cells)
[1] = system: primary BL patient cells (S005); conditions: 48 h
In short: (§1)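 Using 384-well plates with compounds already plated at five concentrations, one well per concentration, 4 × 10^4 primary mononuclear tumour cells were added per well. Cells were Ficoll-isolated from blood or bone marrow or came from processed lymph node, fresh or cryopreserved. They were kept for 48 h at 37 °C and 5% CO2 in RPMI-1640 supplemented with penicillin/streptomycin, L-glutamine and human serum, and viability was read as CellTiter-Glo luminescence relative to the median of 16 inner DMSO wells.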

[2] = system: primary AML patient cells (S071); conditions: 1 µM; 48 h
In short: as §1

[3] = system: primary AML patient cells (S072); conditions: 48 h
In short: as §1

[4] = system: primary MCL patient cells (S068); conditions: 48 h
In short: as §1

[5] = system: primary AML patient cells (S006); conditions: 0.04 µM; 48 h
In short: as §1

[6] = system: primary DLBCL patient cells (S082); conditions: 48 h
In short: as §1

[7] = system: primary AML patient cells (S019); conditions: 1 µM; 48 h
In short: as §1

[8] = system: primary AML patient cells (S055); conditions: 0.008 µM; 48 h
In short: as §1

[9] = system: primary FL patient cells (S022); conditions: 48 h
In short: as §1

[10] = system: primary T-NHL patient cells (S058); conditions: 0.0016 µM; 48 h
In short: as §1

[11] = system: primary AML patient cells (S017); conditions: 0.04 µM; 48 h
In short: as §1

[12] = system: primary DLBCL patient cells (S076); conditions: 0.2 µM; 48 h
In short: as §1

[13] = system: primary MCL patient cells (S041); conditions: 48 h
In short: as §1

[14] = system: primary AML patient cells (S044); conditions: 1 µM; 48 h
In short: as §1

[15] = system: primary AML patient cells (S089); conditions: 48 h
In short: as §1

[16] = system: primary AML patient cells (S056); conditions: 0.008 µM; 48 h
In short: as §1

[17] = system: primary AML patient cells (S079); conditions: 48 h
In short: as §1

[18] = system: primary DLBCL patient cells (S049); conditions: 48 h
In short: as §1

[19] = system: primary AML patient cells (S007); conditions: 1 µM; 48 h
In short: as §1

[20] = system: primary AML patient cells (S002); conditions: 0.04 µM; 48 h
In short: as §1

[21] = system: primary ALL patient cells (S048); conditions: 0.008 µM; 48 h
In short: as §1

[22] = system: primary B-PLL patient cells (S016); conditions: 48 h
In short: as §1

[23] = system: primary AML patient cells (S012); conditions: 48 h
In short: as §1

[24] = system: primary AML patient cells (S081); conditions: 1 µM; 48 h
In short: as §1

[25] = system: primary AML patient cells (S011); conditions: 0.2 µM; 48 h
In short: as §1

[26] = system: primary AML patient cells (S009); conditions: 0.0016 µM; 48 h
In short: as §1

[27] = system: primary AML patient cells (S037); conditions: 48 h
In short: as §1

[28] = system: primary AML patient cells (S021); conditions: 48 h
In short: as §1

[29] = system: primary MCL patient cells (S063); conditions: 48 h
In short: as §1

[30] = system: primary MCL patient cells (S053); conditions: 48 h
In short: as §1

## C=CC(=O)N1CCC[C@@H](n2nc(-c3ccc(Oc4ccccc4)cc3)c3c(N)ncnc32)C1 [Ibrutinib]
[1]; 0.0016 µM
  viability: 1.1
[1]; 0.008 µM
  viability: 0.982
[1]; 0.2 µM
  viability: 0.978
[2]
  viability: 0.673
[3]; 0.0016 µM
  viability: 1.2
[3]; 0.04 µM
  viability: 0.913
[4]; 0.0016 µM
  viability: 0.77
[4]; 0.008 µM
  viability: 0.697
[4]; 0.2 µM
  viability: 0.687
[4]; 1 µM
  viability: 0.783
[5]
  viability: 0.988
[6]; 0.0016 µM
  viability: 0.711
[6]; 0.008 µM
  viability: 0.583
[6]; 0.04 µM
  viability: 0.465
[6]; 0.2 µM
  viability: 0.458
[6]; 1 µM
  viability: 0.477
[7]
  viability: 1
[8]
  viability: 0.949
[9]; 0.2 µM
  viability: 0.978
[9]; 1 µM
  viability: 0.978
[10]
  viability: 1.12
[11]
  viability: 1.1
[12]
  viability: 0.89
[13]; 0.0016 µM
  viability: 0.874
[13]; 0.008 µM
  viability: 0.802
[14]
  viability: 0.777
[15]; 0.008 µM
  viability: 0.988
[15]; 0.04 µM
  viability: 1
[15]; 0.2 µM
  viability: 0.615
[15]; 1 µM
  viability: 0.6
[16]
  viability: 1.1
[17]; 0.04 µM
  viability: 0.879
[17]; 0.2 µM
  viability: 0.862
[17]; 1 µM
  viability: 1.25
[18]; 0.0016 µM
  viability: 0.848
[18]; 0.04 µM
  viability: 0.729
[18]; 0.2 µM
  viability: 0.687
[18]; 1 µM
  viability: 0.686
[19]
  viability: 0.338
[20]
  viability: 1.18
[21]
  viability: 1.12
[22]; 0.0016 µM
  viability: 0.576
[22]; 0.008 µM
  viability: 0.507
[22]; 0.04 µM
  viability: 0.517
[22]; 0.2 µM
  viability: 0.508
[22]; 1 µM
  viability: 0.547
[23]; 0.0016 µM
  viability: 1.1
[23]; 0.008 µM
  viability: 1.09
[24]
  viability: 1.14
[25]
  viability: 0.972
[26]
  viability: 0.965
[27]; 0.0016 µM
  viability: 1.4
[27]; 0.04 µM
  viability: 1.5
[27]; 1 µM
  viability: 1.75
[28]; 0.04 µM
  viability: 1
[28]; 1 µM
  viability: 0.913
[29]; 0.0016 µM
  viability: 0.475
[29]; 0.008 µM
  viability: 0.292
[29]; 0.04 µM
  viability: 0.253
[29]; 0.2 µM
  viability: 0.255
[29]; 1 µM
  viability: 0.262
[30]; 0.0016 µM
  viability: 0.591
[30]; 0.008 µM
  viability: 0.57
[30]; 0.04 µM
  viability: 0.595
[30]; 0.2 µM
  viability: 0.588
[30]; 1 µM
  viability: 0.601
